Experimental data: article PMC4714855, “Prediction of T Cell Epitopes from Leishmania major Potentially Excreted/Secreted Proteins Inducing Granzyme B Production” (PLoS ONE, 2016)

How the values were obtained:
PBMCs = assay: Granzyme B production by stimulated PBMCs (ELISA of culture supernatants); type: cell-based, human; details: PBMCs of 3 HLA-A*0201+ and 3 HLA-A*0201- immune (healed ZCL) donors, peptide 20μg/mL, 5 days; 24 peptides tested
Description: To assess whether the selected peptides could stimulate or not CD8^+ T cells, we have analysed the induction of GrB and IFN-γ by stimulated PBMCs from healed ZCL individuals. PBMCs separated from heparinized blood samples using Ficoll-Hypaque (Sigma-Aldrich, St. Louis, MO) density gradient centrifugation were resuspended in RPMI 1640 medium (Sigma-Aldrich, St. Louis, MO) supplemented with 2mM L-Glutamine (Sigma-Aldrich, St. Louis, MO), 1mM sodium pyruvate (Gibco, Invitrogen, Grand Island, NY), 100U/mL Penicillin (Sigma-Aldrich, St. Louis, MO), 100μg/mL Streptomycin (Sigma-Aldrich, St. Louis, MO), 10mM HEPES (Gibco, Invitrogen, Grand Island, NY), 20μg/mL Gentamicin (Gibco, Invitrogen, Grand Island, NY), 1X non-essential amino acids (Gibco, Invitrogen, Grand Island, NY), 2-mercaptoethanol (Gibco, Invitrogen, Grand Island, NY), and 10% (v/v) heat-inactivated human AB serum (Sigma-Aldrich, St. Louis, MO), [complete medium] at a concentration of 1.0x10^6 cells/mL. Peptide pools were prepared instantly by dilution with phosphate buffered saline and then added to the cell culture at a final concentration of 1μg/mL. In some experiments, peptides were added separately to the culture at a concentration of 20μg/mL. As positive control, PBMCs were stimulated with 10ng/mL of phorbol 12-myristate 13-acetate (PMA) (Sigma-Aldrich, St. Louis, MO) and 50ng/mL Ionomycin (Sigma-Aldrich, St. Louis, MO). All cultures were incubated at 37°C in 5% CO2 for 5 days. Culture supernatants were then harvested and frozen at -80°C until use.
Granzyme B (GrB), IFN-γ, and IL-10 levels in culture supernatants were quantified with an enzyme-linked immunosorbent (ELISA) assay (MABTECH AB, Nacka Strand, Sweden) for the first one and OptEIA set ELISA assay kit (BD Biosciences, San Jose, CA) for the others. The results were expressed as pg/mL based on the standards provided by the kits. Quantification thresholds were fixed to 100pg/mL for GrB, 45pg/mL for IFN-γ, and 20pg/mL for IL-10.
Fig 2 Peptides grouped in pools induced GrB production. (A) PBMCs from 5 HLA-A*0201^+-donors with a history of ZCL in response to stimulation with peptide pools at a final concentration of 1μg/mL per peptide or (B) SLA (10μg/mL) and PMA/Ionomycin (10ng/mL and 50ng/mL, respectively) as positive controls. GrB production was assessed in culture supernatants using ELISA. (C) Rank of the peptide pools. +: mean pool rank, -: median.
Fig 3 GrB induction by the selected peptides. (A) PBMCs from HLA-A*0201^+ (black mark) and HLA-A*0201^- (white mark) -healed ZCL individuals were stimulated with selected peptides separately. The supernatant was collected after 5 days of incubation and assayed for GrB production.

[1] = biological target: T1, HLA-A*0201 molecules on T2 cells (Homo sapiens, UniProt P04439, D140Y/D185E/D98H/E176V/E277Q/G131W/G231S/I119V/I121R/I166T/I218V/L300P/L318F/N151K/N90K/P208A/P217A/Q86G/Q94H/R138H/R169H/T345S); assay: class I HLA stabilization assay on T2 cells (flow cytometry, anti-HLA-A2 antibody); type: cell-based; details: for affinity for HLA-A2 molecule (stabilization on T2 cells), class in words: T2 cell stabilization assay; for relative fluorescence intensity (RFI), percentage increase of mean fluorescence above negative controls: T2 cells, β2-microglobulin 10μg/mL, peptide 10μg/mL (Fig 1 legend: 100μg/mL), 16h 37°C, then Brefeldin A 2h
T1 construct: endogenous in cells; host or cells: T2 cells
Description: The affinity of peptides for HLA-A*0201 molecules was evaluated by using the stabilization assay as previously described. Briefly, T2 cells were incubated with human β2-microglobulin at a final concentration of 10μg/mL in the presence or not of peptides at 10μg/mL for 16h at 37°C in 5% CO2. Cells were then incubated with 5μg/mL Brefeldin A (Sigma-Aldrich, St. Louis, MO) for 2h at 37°C. Expression of HLA-A*0201 on T2 cells was then determined by staining with fluorescein isothiocyanate-labelled anti-HLA-A2 antibody (BD Biosciences, San Jose, CA) and analyzed by flow cytometry using FACScan (BD Biosciences, San Jose, CA). Results were expressed in relative fluorescence intensity (RFI) calculated as the percentage increase of the mean fluorescence above that of the negative controls.
The sequence of 33 different clones of potentially ES proteins has been used. Based on computer software predictions, putative class I HLA-restricted T cell epitopes were identified. Twenty proteins were able to generate a total of 78 nonameric peptides that could be loaded by HLA-A*0201 molecule (Table 2). Subsequently, we have evaluated the binding affinity of these peptides to HLA-A*0201 molecules by class I HLA stabilization assay. This assay measures the increase of HLA-A*0201 molecules induced on T2 cells following exposure to exogenous HLA-A*0201 binding peptides, with high affinity peptides inducing HLA-A*0201 up-regulation more strongly than low-affinity peptides. Individual results are shown on Fig 1A. The 78 tested peptides were classified into 3 groups regarding the percentage of RFI.
Fig 1 Binding affinity of LmES peptides to HLA-A*0201 molecules. The affinities of selected peptides were determined by class I HLA stabilization assay. (A) Results for individual peptides. T2 cells were initially incubated with 100μg (final concentration) of each of the peptides/mL for 16h at 37°C, followed by incubation at 37°C for 2h in presence of Brefeldine A. HLA-A2 expression on these cells was analyzed by flow cytometry using the BB7.2 antibody. MHC stabilization efficiency for each peptide was calculated as the percentage increase of the mean fluorescence above that of the negative controls. Results were expressed as relative fluorescence intensity (RFI). (B) Box plot results. ++: RFI ranges from 200 to 300%, +: RFI ranges from 100 to 200%, and -: RFI ranges from 0 to 100%.

Sequence	GrB induction by individual peptides (PBMCs)	affinity for HLA-A2 molecule (stabilization on T2 cells), class in words [1]	relative fluorescence intensity (RFI), percentage increase of mean fluorescence above negative controls [1]
TLGVKQMVV [F6, nonamer … from L. major ES protein Pr 74 (elongation factor 1-alpha)]	highest levels of GrB	high	> 200%
YLRTFPAAL [E2, nonamer … from L. major ES protein Pr 37]	highest levels of GrB	intermediate	–
SLQFSAFLL [G1, nonamer … from L. major ES protein Pr 78]	–	–	> 200%
ELLGNLEEV [D6, nonamer … from L. major ES protein Pr 31]	–	–	> 200%
MLVQSCTSI [G3, nonamer … from L. major ES protein Pr 78]	highest levels of GrB	high	> 200%
VVSVLTHSV [G4, nonamer … from L. major ES protein Pr 78]	highest levels of GrB	intermediate	–
PLSPATRRL [E6, nonamer … from L. major ES protein Pr 38]	highest levels of GrB	–	–
FMEVFGMLV [G2, nonamer … from L. major ES protein Pr 78]	highest levels of GrB	high	> 200%
MLLWTAVAV [E1, nonamer … from L. major ES protein Pr 37]	–	–	> 200%
